How the values were obtained:
SBC2 = target: T1, SBC2 (Homo sapiens, UniProt O14508); experiment: Isothermal titration calorimetry (ITC), direct titration; type: binding
T1 construct: SOCS2 (amino acids 32–198); His6 (N, cleaved yes); made in house; host or cells: E. coli BL21(DE3)
Procedure: Experiments were performed with ITC200 instrument (Malvern) in 100 mM HEPES pH 7.5, 50 mM NaCl, 0.5 mM TCEP at 298 K. The ITC titration consisted of 0.4 μl initial injection (discarded during data analysis) followed by 19 of 2 μl injections at 120 s interval between injections. 1 mM of the ligands in 2–4% DMSO were titrated into 100 μM SBC2. […] Binding data was subtracted from a control titration where ligand was titrated into buffer, and fitted using a one-set-of-site binding model to obtain dissociation constant (Kd), binding enthalpy (ΔH), and stoichiometry (N) using MicroCal PEAQ-ITC Analysis Software1.1.0.1262 and MicroCal ITC-ORIGIN Analysis Software 7.0 (Malvern).

SOCS2 (SBC2) = target: T2, SOCS2 (SBC2) (Homo sapiens, UniProt O14508); experiment: Intact ESI-MS of recombinant protein, covalent modification; type: biochemical; settings: SOCS2 WT + MN551 (1:1, 40 µM)
T2 construct: SOCS2 (amino acids 32–198); His6 (N, cleaved yes); made in house; host or cells: E. coli BL21(DE3)
T2 sequence (Q15369 17-112, one chain of several, further chain): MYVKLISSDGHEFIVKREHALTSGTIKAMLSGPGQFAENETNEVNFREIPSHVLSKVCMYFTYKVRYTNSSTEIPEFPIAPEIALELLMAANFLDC
T2 sequence (Q15370 1-104, one chain of several, further chain): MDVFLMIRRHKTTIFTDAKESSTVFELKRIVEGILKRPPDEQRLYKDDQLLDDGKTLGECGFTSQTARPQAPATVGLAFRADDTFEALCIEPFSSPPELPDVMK

SOCS2 Cys111 = target: T3, SOCS2 Cys111 (Homo sapiens, UniProt O14508); experiment: SOCS2 immunoprecipitation and tandem MS (LC-MS/MS) of Cys111 peptide from treated K562 cells; type: cell-based; settings: 6 h
T3 construct: MN551 covalently modifies cellular SOCS2 specifically at Cys111; endogenous in cells; host or cells: K562
T3 sequence (O14508 1-198): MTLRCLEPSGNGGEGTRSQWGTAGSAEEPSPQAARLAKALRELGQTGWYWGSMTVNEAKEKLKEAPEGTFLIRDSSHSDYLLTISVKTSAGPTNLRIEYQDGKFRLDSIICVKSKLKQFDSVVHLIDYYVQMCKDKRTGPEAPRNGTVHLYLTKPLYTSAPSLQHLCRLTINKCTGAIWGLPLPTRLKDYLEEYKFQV
Procedure: While CETSA and GHR pulldown experiments allow ascertaining the engagement of cellular SOCS2, distinguishing reversible binding from covalent binding remains a challenge. […] Moreover, the MS2 spectra for cells treated with 1 μM and 10 μM MN714 show a dose-dependent increase in levels of SOCS2 modification (Fig. 6e).
Cells were treated with either DMSO, 1 μM, or 10 μM MN714 for 6 h in 10 cm dish. Cells were harvested, washed with PBS, and lysed in […] RIPA buffer (Sigma-R0278: 150 mM NaCl, 1.0% IGEPAL® CA-630, 0.5% sodium deoxycholate, 0.1% SDS, 50 mM Tris, pH 8.0, and freshly added protease inhibitor tablet). Cellular debris was pelleted, the lysate supernatant was aspirated to a new tube and subjected to immunoprecipitation at 4 °C for 4 h with 3 μl anti-SOCS2 antibody coupled to 20 μl of protein A/G beads (abcam- ab109245). The beads were washed 3 times with 1× RIPA buffer and precipitated protein samples were eluted with 1 × NuPAGE™ LDS sample buffer, and 20% of the sample was analyzed by SDS-PAGE and western blot using a rabbit anti-SOCS2 primary antibody (abcam) and IRDye® 800CW donkey anti-rabbit IgG secondary antibody. The remaining precipitated protein samples were processed for mass-spec analysis. In brief, the samples were reduced with DTT alkylated with Iodoacetamide and subjected to the SP3 protein clean-up procedure. […]
LC-MS analysis was performed by the FingerPrints Proteomics Facility (University of Dundee). Analysis of peptide readout was performed on a Q-Exactive™ plus, Mass Spectrometer (Thermo Scientific) coupled to a Dionex Ultimate 3000 RS (Thermo Scientific). […]
MS raw data were analyzed using MaxQuant software, standard settings were used with the following changes and additions: The modified FASTA databases with individual substitutions of cysteines with the placeholder “U” (selenocysteine) were used[67]. […] The relative intensity of peptide […] without and with a modified cysteine (placeholder “U”) were analyzed by normalizing to total intensity of SOCS2 protein.

T1 sequence (Q15370 1-104 partner limits assumed, one chain of several): as the sequence (Q15370 1-104, one chain of several, further chain) above
T1 sequence (Q15369 17-112 partner limits assumed, one chain of several): as the sequence (Q15369 17-112, one chain of several, further chain) above

| SMILES | Ki (SBC2) [µM] | Kd (SBC2; ITC KD, direct ITC, 298 K) [µM] | % modified (SOCS2 (SBC2); t = 0 min) [%] | % modified (SOCS2 (SBC2); t = 5 min) [%] | % modified (SOCS2 (SBC2); t = 10 min) [%] | % modified (SOCS2 (SBC2); t = 20 min) [%] | % modified (SOCS2 (SBC2); t = 40 min) [%] | % modified (SOCS2 (SBC2); t = 60 min) [%] | % modified (SOCS2 (SBC2); t = 90 min) [%] | % modified (SOCS2 (SBC2); t = 120 min) [%] | relative intensity of modified peptide LDSIIUVK, normalised to total SOCS2 levels (SOCS2 Cys111; 1uM) | relative intensity of unmodified peptide LDSIICVK, normalised to total SOCS2 levels (SOCS2 Cys111; 1uM) | relative intensity of unmodified peptide LDSIICVK, normalised to total SOCS2 levels (SOCS2 Cys111; 10uM) |
| --- | --- | --- | --- | --- | --- | --- | --- | --- | --- | --- | --- | --- | --- |
| O=C(CCl)Nc1cccc(CNC(=O)[C@H](Cc2ccc(OP(=O)(O)O)cc2)NC(=O)Cc2ccc(F)cc2)c1 [MN551] | 2.2 | 2.18 ± 0.6 | 0.0 | 12.6 | 18.9 | 41.4 | 73.7 | 88.0 | 100.0 | 100.0 | – | – | – |
| CC(C)(C)C(=O)OCOP(=O)(OCOC(=O)C(C)(C)C)Oc1ccc(C[C@H](NC(=O)Cc2ccc(F)cc2)C(=O)NCc2cccc(NC(=O)CCl)c2)cc1 [MN714] | – | – | – | – | – | – | – | – | – | – | 24.9386 | 85.6581 | 0 |

Source: PMC10564737, “Structure-based design of a phosphotyrosine-masked covalent ligand targeting the E3 ligase SOCS2” (Nature Communications, 2023)
